According to patent publication US11564911B2, “Small molecule dual-inhibitors of TRPV4 and TRPA1 for sanitizing and anesthetizing” (Duke University, priority 2016, dated 2023):
Several values for one entry are separate records, joined by “and”; a condition that tells them apart may be missing. Identical values can stand only once. Entries after “also recorded” stand apart in the source; their conditions may differ. Square brackets hold non-standard residues; d marks the D form. Peptide text beside a SMILES is read from it.

Tests used:
[1] = tested on: primary mouse keratinocytes (1° MK); assay: UVB-evoked Ca++ signaling in primary mouse keratinocytes (fluo-4); type: cell-based; conditions: for ET1-augmented UVB-induced Ca++ transients: co-exposure to ET1; for UVB-evoked Ca++ signal: GSK205 20 μM
Description: Ca++ imaging of 1° MK was conducted following routine procedures. For UVB stimulation, a customized device was built. The system comprised a printed circuit board for electrical interconnects and mechanical support and an ultraviolet light-emitting diode (UV LED).
The operating wavelength was 295 nm (FIG. 2A), with a full-width half-max of 12 nm. The optical power was 500 mW. The focal point was aimed at the plane of the upper surface of the quartz coverslip, which was used to minimize UV absorption along the optical path towards the cells (FIG. 2A-C). The optical intensity at the focal point was estimated to be 150 mW/mm^2.
(§1) Ca++ imaging of mouse 1° MK in response to chemical activation of TRPV4 was conducted after loading with 2 μM fura2-AM, following a ratiometric Ca2+ imaging protocol with 340/380 nm […] for dual excitation. Ratios of emissions were acquired at 0.5 Hz. ΔR/R0 was determined as the fraction of the increase of a given ratio over baseline ratio, divided by baseline ratio. For stimulation of cells with UVB, where fura-2 was not suitable because of the proximity of stimulation with 340/380 nm and 295 nm, 2 μM fluo4-AM was used instead. Ca++ imaging was carried out at 488 nm excitation, acquisition of emissions at 0.5 Hz, expressed as ΔF/F0. In the custom-built UV optical system, UV LEDs were capped with a ball lens, a transparent optical window in the shape of a hemispherical lens (FIG. 2B). The LED output optical beam focused at 15-20 mm from the lens, with a spot diameter of approximately 1.5-2.0 mm (FIG. 2C). […] The thermal equilibration stage was set for physiological temperature.

[2] = tested on: primary mouse keratinocytes (1° MK); assay: ET1 secretion by non-stimulated primary mouse keratinocytes (ELISA); type: cell-based
Description: FIGS. 8A-8D: Central role for KC TRPV4 in UVB-evoked Ca^++ signaling and nocifensive behavior—ET1-related supplementary findings. (FIG. 8A) Augmentation of GSK101-evoked Ca^++ signaling by ET1. Shown are averaged Ca^++ measurements (fura-2) in response to 5 nM GSK101. Note the increase in signal in response to co-exposure to ET1. (FIG. 8B) ET1 secretion by non-stimulated 1° MK depends on TRPV4 and PLC. Shown are relative ET1 concentrations (determined by ELISA, pg/mL; vehicle-treated and WT control normalized to 100) in supernatant of non-stimulated 1° MK. Note the clear dependence on TRPV4, as indicated by a 50% reduction in Trpv4^−/− 1° MK. […] There is also down-regulation of ET1 secretion by a specific inhibitor of PLC (U73122), and by an ET-convertase inhibitor, CGS35066, which served as a control compound. In addition, PLC-inhibitor robustly affects ET1 secretion in WT and Trpv4^−/− 1° MK. (FIG. 8C) ET1 expression by UVB-exposed 1° MK depends on TRPV4 and PLC—immunocytochemistry. Shown is specific ET1 immunolabeling in 1° MK, exposed to UVB using the UVB-LEDs, as for Ca^++ imaging. Use of the UVB-LED device precluded application of a ET1 ELISA, only irradiated cells could be examined. […] (FIG. 8D) ET1 expression by UVB-exposed 1° MK depends on TRPV4 and PLC—quantification of immunocytochemistry.

[3] = tested on: primary mouse keratinocytes (1° MK); assay: ET1 immunocytochemistry in UVB-exposed primary mouse keratinocytes; type: cell-based; conditions: 295 nm UVB-LED
Description: 1° MK were exposed to UVB using the UV optical system (295 nm LED). 24 hours later the cells were fixed and fluorescently immunolabeled for ET1. Digital images were captured and subjected to morphometry.
Mouse keratinocytes were cultured on collagen coated quartz coverslips and then stimulated from the bottom using the previously mentioned UV optical system using the 295 nm LED. 24 hours later the cells were fixed in 4% formaldehyde in PBS for 20 minutes, permeabilized with 0.1% Triton X-100 in PBS for 10 minutes, washed, then blocked in 10% normal goat serum in PBS for 45 minutes. Coverslips were incubated overnight with primary antibody mouse anti-ET1 (1:200; Abcam), washed three times in PBS and incubated with secondary antibody for 2 hours at 25° C. Coverslips were washed three times in PBS, once with double-distilled H2O. Digital images were captured using a 40× immersion lens on the BX61 Olympus upright microscope. Morphometric analysis was conducted using ImageJ freeware with tailored regions-of-interest.

TRPV4 (rat) = molecular target: T1, TRPV4 (rat) (Rattus norvegicus, UniProt Q9ERZ8); assay: Ca++ imaging in N2a cells with directed expression of TRPV4, activation with GSK101; type: cell-based
T1 construct: expressed in transfected cells; host or cells: N2a (mouse neuroblastoma) cells
T1 sequence (Q9ERZ8 whole entry): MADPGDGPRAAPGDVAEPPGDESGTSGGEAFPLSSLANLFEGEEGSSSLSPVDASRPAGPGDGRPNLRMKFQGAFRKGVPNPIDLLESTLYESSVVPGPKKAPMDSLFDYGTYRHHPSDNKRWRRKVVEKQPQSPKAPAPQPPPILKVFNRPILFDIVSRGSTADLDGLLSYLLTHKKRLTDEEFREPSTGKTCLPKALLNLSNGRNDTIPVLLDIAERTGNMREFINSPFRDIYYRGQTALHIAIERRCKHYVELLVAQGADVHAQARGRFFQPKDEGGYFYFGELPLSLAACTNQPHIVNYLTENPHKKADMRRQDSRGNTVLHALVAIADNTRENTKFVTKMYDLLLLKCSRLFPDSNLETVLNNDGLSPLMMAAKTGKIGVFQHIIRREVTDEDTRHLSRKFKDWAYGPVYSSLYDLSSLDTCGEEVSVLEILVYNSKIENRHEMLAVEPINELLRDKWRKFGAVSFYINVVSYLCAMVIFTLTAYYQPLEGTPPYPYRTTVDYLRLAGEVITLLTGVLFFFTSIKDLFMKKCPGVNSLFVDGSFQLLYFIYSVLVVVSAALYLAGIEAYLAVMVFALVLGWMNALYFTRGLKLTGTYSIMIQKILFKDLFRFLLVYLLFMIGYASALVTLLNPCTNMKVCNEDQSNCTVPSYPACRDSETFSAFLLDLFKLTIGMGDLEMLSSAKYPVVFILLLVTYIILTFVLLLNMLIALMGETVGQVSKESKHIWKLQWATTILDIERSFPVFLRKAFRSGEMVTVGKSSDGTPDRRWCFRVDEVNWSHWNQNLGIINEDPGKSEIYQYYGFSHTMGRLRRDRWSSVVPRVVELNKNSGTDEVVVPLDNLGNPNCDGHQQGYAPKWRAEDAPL
Excerpt: FIGS. 26A-26B: Assessment of compounds in N2a cells with directed expression of TRPV4. […] The number on each bar corresponds to average peak ΔCa++ concentrations in ≈100 cells. […] Plot generated from averaged peak ΔCa++ concentration of 75 cells per data-point.

TRPV4 [4] = molecular target: TRPV4 (Homo sapiens, UniProt Q9HBA0); assay: TRPV4-mediated calcium influx in N2a cells with targeted expression of human TRPV4; type: cell-based; design: expressed in transfected cells; host or cells: N2a cells; conditions: 2.5 μM inhibitor, pre-incubation 10 min, 10 nM GSK101
TRPV4 (Homo sapiens, UniProt Q9HBA0), sequence (Q9HBA0 whole entry): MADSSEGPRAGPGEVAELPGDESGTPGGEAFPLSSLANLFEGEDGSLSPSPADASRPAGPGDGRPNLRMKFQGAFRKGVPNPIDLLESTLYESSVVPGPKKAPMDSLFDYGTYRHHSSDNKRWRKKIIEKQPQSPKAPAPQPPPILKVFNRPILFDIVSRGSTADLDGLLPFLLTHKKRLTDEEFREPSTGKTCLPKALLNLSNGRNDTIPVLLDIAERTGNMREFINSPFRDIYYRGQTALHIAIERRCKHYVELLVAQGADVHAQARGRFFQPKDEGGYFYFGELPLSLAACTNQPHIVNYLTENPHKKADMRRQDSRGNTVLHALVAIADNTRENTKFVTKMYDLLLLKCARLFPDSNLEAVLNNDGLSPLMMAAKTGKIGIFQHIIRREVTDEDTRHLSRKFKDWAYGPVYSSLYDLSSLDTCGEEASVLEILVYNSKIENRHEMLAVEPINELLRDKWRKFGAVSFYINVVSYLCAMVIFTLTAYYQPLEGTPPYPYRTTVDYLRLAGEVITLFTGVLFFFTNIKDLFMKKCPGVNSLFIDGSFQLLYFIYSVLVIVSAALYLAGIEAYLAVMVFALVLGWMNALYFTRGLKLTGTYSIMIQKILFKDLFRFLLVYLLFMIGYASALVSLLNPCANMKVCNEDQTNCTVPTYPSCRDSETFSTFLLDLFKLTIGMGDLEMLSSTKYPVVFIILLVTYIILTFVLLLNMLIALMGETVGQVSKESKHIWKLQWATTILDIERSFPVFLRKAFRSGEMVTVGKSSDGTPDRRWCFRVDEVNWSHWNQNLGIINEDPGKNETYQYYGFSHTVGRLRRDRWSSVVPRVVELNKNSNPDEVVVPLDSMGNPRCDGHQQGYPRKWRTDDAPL

[5] = tested on: Trpv4−/− mice, whisker-pad injection of formalin; assay: Formalin-evoked trigeminal irritant pain, systemic (i.p.) compound, Trpv4−/− mice; type: in vivo, mouse; conditions: 25 mg/kg i.p.
Description: FIGS. 31A-31D: 16-8 and 16-19 effectively attenuate formalin-evoked trigeminal irritant pain. (FIG. 31A) Time-course of nocifensive behavior in WT mice following whisker-pad injection of 4% formalin. The mice were pre-injected (i.p., 10 mg/kg; 15 min before formalin) with GSK205, 16-8 or 16-19. Note effective reduction of nocifensive behavior in the late “neural” phase by compounds 16-8, 16-19, not by GSK205. (FIG. 31B) Cumulative response binned into 3 phases: acute phase (0-5 min), interphase (5-15 min), and late “neural” phase (15-45 min). […] (FIG. 31C) As in (FIG. 31A), but also including Trpv4^−/− mice. Compounds were applied i.p. 15 min before formalin challenge, at 10 mg/kg except established TRPA1 blocker, A967079 (25 mg/kg). Previously-established attenuated nocifensive behavior in early and late phase in Trpv4^−/− mice was recapped, which was reduced further by TRPA1 blocker, A967079. (FIG. 31D) As in (FIG. 31B), plus inclusion of Trpv4^−/− mice. Robust effects of TRPA1-blocker, A967079, were mimicked equi-potently by 16-8 and 16-19 for early phase, and by 16-8 for late phase, partially by 16-19 for late phase. (FIG. 31A, FIG. 31C) show averaged behavioral metrics per time-point, bars in (FIG. 31B, FIG. 31D) represent mean±SEM; for (D) *p<0.05; #P<0.005, one-way ANOVA; for all panels n=5-8 mice/group.
Compounds were tested for their effect in reducing pain using an in vivo pain model in mice. For mouse formalin-evoked irritant behavior measurements, mice were well-fed, well-rested, and tested at the same time of day, at the same time-point of their circadian rhythm. They were allowed to acclimate to a plexiglas chamber for at least 30 min before testing, and received 10 μL subcutaneous injection of 4% of formalin (diluted from an aqueous solution of commercial 37% formaldehyde with normal saline (NS)) through a 30-gauge needle into the right whiskerpad, as further detailed in Luccarini et al. (J. Pain, 2006, 7, 908-914). Normal saline was used as control injection. After injection, mice were immediately placed back into the chamber and the rubbing behavior was recorded by a private consumer-type video-camera for a 45 min observation period. The recording time was divided into 9 blocks of 5 min, and a nociceptive score was determined per block by measuring the time that the animals spent rubbing the injected area predominantly with the ipsilateral fore-paw and rarely with hind-paw. This rubbing behavior with fore-paw is evoked by pain, which is distinct from itch behavior. Behavioral analysis was conducted by observers blinded to treatment.
We observed significant residual irritant-pain behavior in all phases of the formalin model in Trpv4^−/− mice, consistent with our previous report^13 (FIG. 31C,D). […] A reference TRPA1-inhibitory compound, A967079, was used at 25 mg/kg body weight as a positive control to inhibit TRPA1, based on a previous report^38. Reduction of pain behavior in Trpv4^−/− mice was striking, more than 50% in the late neural phase. […] We conclude that compound 16-8 also functions as a potent TRPA1-inhibitor in an in-vivo irritant pain model specifically designed to assess the contribution of TRPA1 to trigeminal irritant pain, and at least as potent as an established reference TRPA1-antagonistic compound.

[6] = tested on: WT and oil-treated iKO mice; assay: Nocifensive behavior after ET1 footpad injection (von Frey); type: in vivo, mouse; conditions: 10 μL 100 nM ET-1 intraplantar
Description: ET1 injections: After determining base-line withdrawal thresholds, each animal received an intraplantar injection of 10 μL 100 nM ET-1 plus contralateral vehicle. Thresholds were again evaluated 1 hour after injection.
Hindpaw mechanical withdrawal thresholds were determined by the automated von Frey hair method, using a 0.5 mm diameter stainless steel filament, part of an automated plantar touch stimulator (Ugo Basile, Modena, Italy). Relevant detail included pre-test acclimatization in a quiet room for 30 min, conducting the test at the same time of day and blinded observers. The stimulus was delivered to the hindpaw, automatically discontinued upon withdrawal, and its intensity recorded automatically. 6-8 trials per animal were conducted, with equal exposure of both hindpaws, leading to an average withdrawal threshold. Results are reported as […], which was calculated by subtracting post-treatment from pre-treatment measurements, expressed as % or relative to 1.0.

TRPV4 [7] = molecular target: T2, TRPV4 (Mus musculus, UniProt Q9EPK8); assay: Ca++ transients in primary mouse keratinocytes on chemical activation of TRPV4 (GSK101, 4α-PDD); type: cell-based; conditions: 1° MK
T2 construct: endogenous in cells; host or cells: primary mouse epidermal keratinocytes (1° MK)
T2 sequence (Q9EPK8 whole entry): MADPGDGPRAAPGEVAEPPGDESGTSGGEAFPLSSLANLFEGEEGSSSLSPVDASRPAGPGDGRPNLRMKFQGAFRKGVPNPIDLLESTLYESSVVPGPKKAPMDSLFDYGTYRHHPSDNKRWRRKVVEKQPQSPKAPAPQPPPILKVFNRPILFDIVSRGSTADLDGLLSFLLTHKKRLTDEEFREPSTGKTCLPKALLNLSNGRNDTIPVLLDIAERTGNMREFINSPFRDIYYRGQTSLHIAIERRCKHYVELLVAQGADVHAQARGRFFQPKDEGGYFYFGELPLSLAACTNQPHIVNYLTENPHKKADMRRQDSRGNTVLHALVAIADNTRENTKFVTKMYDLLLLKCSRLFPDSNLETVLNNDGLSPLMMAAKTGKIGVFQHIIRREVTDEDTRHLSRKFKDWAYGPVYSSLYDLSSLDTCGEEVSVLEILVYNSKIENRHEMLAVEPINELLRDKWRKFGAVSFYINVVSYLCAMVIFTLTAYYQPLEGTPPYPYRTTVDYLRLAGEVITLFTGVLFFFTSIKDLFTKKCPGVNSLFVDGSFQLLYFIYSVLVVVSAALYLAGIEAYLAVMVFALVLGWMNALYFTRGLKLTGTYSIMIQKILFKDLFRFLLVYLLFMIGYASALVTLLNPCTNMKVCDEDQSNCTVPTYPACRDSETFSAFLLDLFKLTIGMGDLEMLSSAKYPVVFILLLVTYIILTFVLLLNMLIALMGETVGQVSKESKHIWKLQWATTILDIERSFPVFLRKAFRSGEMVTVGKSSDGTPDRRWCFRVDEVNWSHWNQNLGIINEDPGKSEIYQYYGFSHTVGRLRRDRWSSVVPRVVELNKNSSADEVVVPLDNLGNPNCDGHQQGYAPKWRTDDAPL
Description: as §1, with “temperature. We confirmed the non-thermal nature of UVB stimulation using the customized 295 nm LED device in a dedicated experiment (FIG. 2D), thus confirming the specific modality of stimulation as UVB.” for “temperature.”

With `CC(C)C[C@@H]1NC(=O)[C@@H](C(C)C)NC(=O)[C@@H]2CCCN2C(=O)[C@@H](CC(=O)O)NC(=O)[C@@H](Cc2c[nH]c3ccccc23)NC1=O` [BQ123] (cyclo(L[dW][dD]P[dV])) as the compound, how does the “ET1-augmented UVB-induced Ca++ transients” value [1] read?
The value was “attenuated”.

Which “ET1-augmented UVB-induced Ca++ transients” value [1] does the source give for `CCCC[C@@H](NC(=O)[C@@H](Cc1cn(C(=O)OC)c2ccccc12)NC(=O)[C@H](CC(C)(C)C)NC(=O)N1[C@H](C)CCC[C@@H]1C)C(=O)O` [BQ788] here?
The value was “attenuated”.

For `O=C(O)C(Cc1ccc2c(c1)oc1ccccc12)NCP(=O)(O)O` (centres unmarked) [CGS35066], which “UVB-evoked Ca++ signal” value [1] is on record?
The value was “significantly diminished”.

What about the “ET1 secretion, supernatant of non-stimulated 1° MK” value [2] of the same compound?
The value was “down-regulation”.

And the “ET1 immunoreactivity in UVB-exposed 1° MK” value (“ET1 immunoreactivity” below) [3]?
Its value is “significant down-regulation”.

What does the source list for `CCN(CCc1ccc(Nc2nc(-c3cccnc3)cs2)cc1)Cc1ccccc1` [Compound 16-18]?
IC50 (TRPV4 (rat); N2a cells, rat TRPV4, 5 nM GSK101, averaged peak ΔCa++, read-out: IC50, inhibition of TRPV4-mediated Ca++ influx): 810 nM and 590 nM; increased potency versus parental compound GSK205 (TRPV4 (rat); from IC50 values, rat TRPV4 in N2a cells): ~5 fold; inhibition of TRPV4-mediated Ca++ influx, first round screening (TRPV4 (rat); inhibitor 5 μM, 5 nM GSK101): two most potent; inhibition of TRPV4-mediated calcium influx (peak calcium concentration) (TRPV4 [4]): most potent

How did the “reduction of pain behavior in the late neural phase” value [5] turn out when `CCC(=N\O)/C(C)=C/c1ccc(F)cc1` [Compound A967079, reference compound] was run?
Its value is “more than 50%”.

With `COc1ccc2c(c1)CC[C@@H]1[C@@H]2CC[C@]2(C)[C@@H](NCCCCCCN3C(=O)C=CC3=O)CC[C@@H]12` [Compound U73122] as the compound, how does the “UVB-evoked Ca++ signal” value [1] read?
The value was “virtually eliminated; also recorded: strongly reduced”.

And the “ET1 secretion, supernatant of non-stimulated 1° MK” value [2]?
The value was “down-regulation”.

And the “ET1 immunoreactivity” value [3]?
Its value is “significant down-regulation”.

Which “UVB-evoked Ca++ signal” value [1] does the source give for `C=C(C)CCO[P@@](=O)(O)OP(=O)(O)O` [IPP, isopentenyl pyrophosphate] here?
The value was “not inhibited”.

`CC(C)NCCN(C(C)C)S(=O)(=O)c1ccc(Cl)cc1Cl` [RN1734] was tested. Which “ET1 secretion, supernatant of non-stimulated 1° MK” value [2] did it give?
The value was “significant down-regulation”.

And the “ET1 immunoreactivity” value [3]?
Its value is “significant down-regulation”.

With “ET1: endothelin-1 peptide, cognate ligand of endothelin receptors” as the compound, how does the “mechanical withdrawal after footpad injection” value [6] read?
The value was “significant levels of mechanical allodynia”.

What about the “GSK101-evoked Ca++ transient” value (TRPV4 [7]; 5 nM GSK101, GSK205 20 μM) of the same compound?
The value was “augmented”.

And the “4α-PDD-evoked Ca++ transient” value (TRPV4 [7]; fura-2)?
Its value is “significant increase”.

And the “UVB-evoked Ca++ signal” value [1]?
The value was “significant increase”.
